Experiments:
human MCHR1 [1] = molecular target: T1, human MCHR1 (Homo sapiens, UniProt Q99705); test: Human MCH receptor 1 (MCHR1) binding inhibitory activity, [125I]-MCH(4-19) binding assay with MCHR1-expressing CHO cellular membrane fraction; conditions: test compound 0.1 μM, human MCHR1-expressing CHO cell membrane, read-out: Binding inhibition rate % (0.1 μM)
T1 construct: expressed in transfected cells; host or cells: CHO cell clone 57 (membrane fraction)
Description: Using human MCHR1(=SLC-1 receptor)-expressing CHO cell clone 57 described in WO01/82925, MCHR1-expressing CHO cellular membrane fractions were prepared by the following method. […] Homogenate buffer (10 mL, 10 mM NaHCO3, 5 mM EDTA, pH 7.5, 0.5 mM PMSF (phenylmethylsulfonyl fluoride), 20 mg/L leupeptin, 4 mg/L E-64, 1 mg/L pepstatin A) was added to the pellets of the cells and, using Polytron Homogenizer, the mixture was homogenated. The supernatant obtained after centrifugation at 400×g for 10 min was further centrifuged at 100,000×g for 1 hr to give precipitate of the membrane fraction. The precipitate were suspended in 2 mL of assay buffer [20 mM Tris-HCl (pH 7.5), 5 mM EDTA, 0.5 mM PMSF, 20 mg/L leupeptin, 4 mg/L E-64, 1 mg/L pepstatin A]. The membrane fractions were suspended in assay buffer to a protein concentration of 2 mg/mL, and after dispensing, preserved at −80° C. and used upon thawing each time when in use. The MCHR1 ligand binding inhibitory activity of the test compound was determined as follows. An MCHR1-expressing CHO cellular membrane fraction (173 μL) diluted with an assay buffer was dispensed to a 96 well polypropylene plate (3363, Corning). […] Using a treating glass filter plate (GF/C, PerkinElmer) with polyethyleneimine, which had been previously set, the plate was suction-filtered and washed three times with washing buffer (50 mM Tris-HCl buffer pH 7.5). The glass filter plate was dried, MicroScinti0 (PerkinElmer) was added at 25 μL/well, and the resulting radioactivity was measured by TopCount liquid scintillation counter (PerkinElmer). The binding inhibition rate of the test compound was calculated by the following formula.

human MCHR1 [2] = molecular target: T1, human MCHR1; test: MCH receptor 1 antagonistic activity, Ca2+ mobilization assay in human MCHR1-expressing CHO cells (clone #4); format: cell-based; conditions: test compound 0.1 μM, ligand MCH(4-19) 2 nM, read-out: Inhibition rate % (0.1 μM)
Description: Measurement of MCH Receptor 1 Antagonistic Activity of Test Compound Using Ca^2+ Mobilization Assay
Using an expression vector plasmid introduced with human MCHR1 gene for expression in animal cells, human MCHR1 gene was introduced into CHO cells (CHO dhfr^−) by Lipofectamine LTX (Invitrogen). The cells were cultured in selection MEMα medium [445 mL of MEMα medium without nucleic acid and added with 5 mL of Penicillin-Streptomycin (Invitrogen) and 50 mL of dialyzed fetal bovine serum]. Colony 24 clones grown in the selection medium, which were human MCHR1 gene-expressing CHO cell candidates, were selected. […] In the following test, this human MCHR1-expressing CHO cell (clone #4) was used. An integrated dispensing function fluorometer (CellLux, PerkinElmer) was used for Ca^2+ mobilization assay. The CHO cells were sown in a 96 well plate (type 3904, Corning) with a black wall and clear well bottom at a density of 20000 cells/well, and cultured in an incubator for about 24 hr at 5% CO2, 37° C. The medium was removed, and the cells were washed with phosphate buffered saline (PBS). A Ca^2+ indicator dye reagent (DOJINDO LABORATORIES, Ca screening no-wash kit Fluo4) was added at 100 μL/well, and the dye was allowed to penetrate into the cell for 30 min in an incubator at 5% CO2, 37° C. The plate was set on a plate reader. First, a test compound solution diluted with an assay buffer [10 mM HEPES (pH 7.4), 1× assay buffer containing 0.1% BSA (DOJINDO LABORATORIES, attached to Ca screening no-wash kit Fluo4)] or DMSO solution was added at 50 μL/well, and then ligand MCH (4-19) peptide (final concentration 2 nM) diluted with assay buffer or DMSO was added at 50 μL/well, during which changes in intracellular fluorescence were measured at 2 second intervals. […]
The inhibition rates (%) of test compounds (0.1 μM) as antagonist activity measured using human MCHR1-expressing CHO cells (clone #4) are shown in the following Table 3.

T1 sequence (Q99705 whole entry): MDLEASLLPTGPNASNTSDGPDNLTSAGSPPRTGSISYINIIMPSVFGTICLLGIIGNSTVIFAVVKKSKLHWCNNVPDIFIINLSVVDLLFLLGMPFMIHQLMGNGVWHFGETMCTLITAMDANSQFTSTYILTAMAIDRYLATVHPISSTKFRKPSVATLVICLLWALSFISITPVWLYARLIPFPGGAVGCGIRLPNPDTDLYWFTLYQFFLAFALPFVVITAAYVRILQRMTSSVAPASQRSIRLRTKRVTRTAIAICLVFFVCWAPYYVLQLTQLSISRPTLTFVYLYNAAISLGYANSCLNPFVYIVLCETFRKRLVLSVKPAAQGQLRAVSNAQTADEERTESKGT

| inhibition at 0.1 µM (human MCHR1 [1]) [%] | inhibition at 0.1 µM (human MCHR1 [2]) [%] | SMILES |
| --- | --- | --- |
| 91 |  | Cn1c([C@H]2C[C@H]2C(C)(C)O)nc2ccc(-n3ccc4oc(-c5ccc(Cl)cc5)cc4c3=O)cc21 (racemic) [Example 4, 2-(4-Chlorophenyl)-5-(2-((1RS,2SR)-2-(2-hydroxypropan-2-yl)cyclopropyl)-1-methyl-1H-benzimidazol-6-yl)furo[3,2-c]pyridin-4(5H)-one] |
| 74 | 92 | Cc1c(C2CC2)nc2ccc(-n3ccc4oc(-c5ccc(Cl)cn5)cc4c3=O)cn12 [Example 3, 2-(5-Chloropyridin-2-yl)-5-(2-cyclopropyl-3-methylimidazo[1,2-a]pyridin-6-yl)furo[3,2-c]pyridin-4(5H)-one] |
| 79 | 70 | Cn1c(C2CC2)nc2ccc(-n3ccc4oc(-c5ccc(Cl)cc5)cc4c3=O)cc21 [Example 2, 2-(4-Chlorophenyl)-5-(2-cyclopropyl-1-methyl-1H-benzimidazol-6-yl)furo[3,2-c]pyridin-4(5H)-one] |
| 100 | 82 | Cc1c(C2CC2)nc2ccc(-n3ccc4oc(-c5ccc(Cl)cc5)cc4c3=O)cn12 [Example 1, 2-(4-Chlorophenyl)-5-(2-cyclopropyl-3-methylimidazo[1,2-a]pyridin-6-yl)furo[3,2-c]pyridin-4(5H)-one] |

— patent publication US9440987B2, “Aromatic ring compound” (TAKEDA PHARMACEUTICAL COMPANY LIMITED, priority 2012, dated 2016)
